Measured values published in patent publication US5763430A, “Method of treating a viral infection by administering a steroid compound” (priority 1995, dated 1998).
In brackets after ≈: the same amount, converted by molar mass. Entries after “also recorded” stand apart in the source; their conditions may differ.

How the values were obtained:
human NHE1 = test: internal pH changes in PS120 fibroblasts transfected with human NHE1; format: cell-based; conditions: 5 μg/ml, FIG. 2B
Method: (§1) PS120 fibroblasts transfected with rabbit: or human NHE1 were grown as described above.

rabbit NHE1 = test: internal pH changes in PS120 fibroblasts transfected with rabbit NHE1; format: cell-based; conditions: 5 μg/ml, FIG. 2A
Method: as §1

[1] = tested on: bovine pulmonary endothelial cells; test: growth inhibition of endothelial cells in vitro (absorbance at 600 nm); format: cell-based; conditions: 1 μg/ml, FIG. 3A
[2] = tested on: human epithelial cell line MCF 10A; test: growth inhibition of epithelial cells in vitro (absorbance at 600 nm); format: cell-based; conditions: 10 μg/ml, FIG. 3B
[3] = tested on: human foreskin fibroblasts; test: growth inhibition of fibroblasts in vitro (absorbance at 600 nm); format: cell-based; conditions: 10 μg/ml, FIG. 3C
[4] = tested on: human microvascular cells; test: inhibition of endothelial cell cord formation in vitro; format: cell-based
How it was run: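 Human microvascular endothelial cells plated on collagen matrix with VEGF and basic FGF; compound effect on cord-like structure formation scored in a standard cord formation assay.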

[5] = tested on: chick embryo vitelline capillaries; test: chick embryo vitelline capillary regression assay; format: in vivo
Method: Using the chick embryo vitelline capillaries assay, compounds were tested for their ability to induce capillary regression. Each compound was applied in 0.1 ml of 15% Ficol 400 and PBS onto the embryo, and vascular regression was assessed after 60 minutes.
The 3-day chick embryo consists of an embryonic disc from which numerous vessels emerge and return, forming a "FIG. 8"-shaped structure--the embryo in the center with vascular loops extending outward over both poles. […] Following a lag period of around 15 minutes, the constriction of continuity between capillary and secondary vessels, generally on the "venous" side, was observed. Continued pulsatile blood flow progressed, resulting in a "swelling" of the blind tube, followed by a pinching off of the remaining connection and formation of an enclosed vascular sac resembling a "blood island." This process progressed until only the largest vessels remained intact.

B16 melanoma = test: suppression of growth of B16 melanoma in C57B mice; format: in vivo, mouse
Method: The growth of B16 melanoma in C57B mice is dependent upon neovascularization.
Using the growth of B16 melanoma cells in C57B mice, a recognized model for the evaluation of inhibitors of angiogenesis on the growth of cancers, the effects of subcutaneous, intraperitoneal and oral administration of squalamine were evaluated.
Based on the idea that tumor growth involves both the clonal expansion of a malignant cell along with the development of a supporting vascular supply, a combination of compound 1436 with squalamine was tested to determine whether it would achieve a synergistic effect on solid tumor growth. This concept was evaluated in the B16 melanoma model.
Animals were implanted with B16 melanoma followed by treatment with compound 1436 or 1256 administered in a combined schedule or separately. […] Thus, a combination of these two compounds achieves a therapeutic benefit in tumors dependent on neovascularization that may prevent metastatic spread.

melanoma 1205Lu = test: suppression of growth of human melanoma in immunocompromised (RAG-1) mice; format: in vivo, human melanoma in mouse; conditions: FIG. 5, listed as Squalamine
Description: As apparent from FIG. 5, melanoma 1205Lu develops aggressively in RAG-1 mice after implantation.

mouse IV PK study = format: in vivo; conditions: i.v., mouse blood stream, HPLC
Method: To assess clearance, a mouse IV PK study was performed for compound 319 and squalamine. The compound was administered i.v. and blood samples were taken every 10 minutes. The concentration of the administered steroid was determined by HPLC analysis.

Murine B16 melanoma = test: growth inhibition in vitro; format: cell-based; conditions: except at very high concentrations
Description: As set forth in Table 7 below, all malignant tumors evaluated in tissue culture, endothelial cells and vascular smooth muscle cells were sensitive to inhibition. Thus, compound 1436 has application in the control of growth factor dependent proliferation of many types of tissue.

[6] = tested on: human coronary artery smooth muscle; test: proliferation of human coronary artery smooth muscle in vitro; format: cell-based; conditions: FIG. 15
Description: Aminosterols of the invention may also have utility in inhibiting the growth factor mediated proliferation of smooth muscle within the artery. Following coronary angioplasty, reocclusion commonly occurs, secondary to reparative proliferation of the vascular smooth muscle within the wall of the surgically manipulated blood vessel. This process generally takes place over the course of 7-10 days. To evaluate whether an agent could prevent the growth factor mediated proliferation of smooth muscle within the artery, compound 1436 was evaluated in vitro for its effect on the proliferation of human coronary artery smooth muscle. Results for compound 1436 are shown in FIG. 13, and those for squalamine are shown in FIG. 14, with FIG. 15 being a composite logarithmic plot.

C. albicans = test: antibiotic activity (MIC); format: cell-based; conditions: Candida albicans; C. albicans; read-out: MIC
Description: (§2) Thus, it is possible to achieve an antimicrobial steroid with or without squalamine-like pharmacological activity.

E. coli = test: antibiotic activity (MIC); format: cell-based; conditions: Escherichia coli; E. coli; read-out: MIC
Description: as §2

P. aerug = test: antibiotic activity (MIC); format: cell-based; conditions: P. aerug; read-out: MIC
Description: as §2

S. aureus = test: antibiotic activity (MIC); format: cell-based; conditions: Staphylococcus aureus; S. aureus; read-out: MIC
Description: as §2

[7] = tested on: stage 59-60 Xenopus tadpole; test: Xenopus tadpole assay; conditions: 10 μg/ml; for tadpole response: about 1 hour
human lymphocytes = test: inhibition of mitogen (PHA)-stimulated growth of human T-cells; conditions: 10 μg/ml
Method: Specific assays were used to identify steroids with a particular biological activity, such as an assay for inhibition of mitogen-stimulated growth of human T-cells.
Human heparinized blood, freshly collected, was introduced into tissue culture flasks containing 10 μg/ml phytohaemagglutinin (PHA) in RPMI medium with 10% FCS. Various purified steroids were introduced subsequently at concentrations of 1, 5, and 10 μg/ml. Cultures were incubated for 72 hours, after which time colcemid was added to 1 μg/ml. Cultures were maintained for an additional 2 hours, and cells collected. Miotic figures were estimated using standard cytochemical techniques, following Giemsa staining.

rabbit NHE3 = rabbit NHE3 (Oryctolagus cuniculus, UniProt P26432)
Method: Internal pH was measured either following acid loading or in the absence of an acid-loading challenge, with the results shown in FIGS. 1A and 1B.
Specifically, PS120 fibroblasts transfected with rabbit NHE3 were grown in supplemented Dulbecco's-modified Eagle's medium as described by Levine et al., J. Biol. Chem. 268, 1993, 25527-25535. […] For cells not acid-preloaded, the actual internal pH value was monitored as a function of time following addition of squalamine, with the results depicted in FIG. 1B.
PS120 fibroblasts transfected with rabbit NHE3 were grown and acid preloaded by exposure to 40 mM NH4 Cl as described above in conjunction with FIGS. 1A and 1B. Internal cellular pH changes expressed as the rate of pH recovery as a function of restored extracellular sodium ion concentration following exposure to 10 μg/ml of the compound were assayed with the fluorescent dye BCECF-AM as described above.

[8] = tested on: human umbilical venous endothelial cells; test: LPS-induced neutrophil adherence to human umbilical venous endothelial cells; conditions: 10 μg, 1.0 μg, or 0.1 μg; activated human endothelial cells
Method: In these experiments, approximately 2×10^5 human umbilical venous cells (passage 2-6) were plated per well. The cells were grown in serum-free media overnight. For induction, either TNF-α (40 ng/ml) was added to endothelial cells for 6 hours prior to adding neutrophils or LPS (100 ng/ml) was added for 4-6 hours. […] After activation of the endothelial cells, approximately 50×10^6 neutrophils were added per well. The plates were gently rocked for 30 minutes at room temperature, followed by removal of the media and washing in serum-free media three times and then photographing of each well. […] A monoclonal Ab to ICAM-1 was a positive control.

Sequence of rabbit NHE3 (P26432 30-832): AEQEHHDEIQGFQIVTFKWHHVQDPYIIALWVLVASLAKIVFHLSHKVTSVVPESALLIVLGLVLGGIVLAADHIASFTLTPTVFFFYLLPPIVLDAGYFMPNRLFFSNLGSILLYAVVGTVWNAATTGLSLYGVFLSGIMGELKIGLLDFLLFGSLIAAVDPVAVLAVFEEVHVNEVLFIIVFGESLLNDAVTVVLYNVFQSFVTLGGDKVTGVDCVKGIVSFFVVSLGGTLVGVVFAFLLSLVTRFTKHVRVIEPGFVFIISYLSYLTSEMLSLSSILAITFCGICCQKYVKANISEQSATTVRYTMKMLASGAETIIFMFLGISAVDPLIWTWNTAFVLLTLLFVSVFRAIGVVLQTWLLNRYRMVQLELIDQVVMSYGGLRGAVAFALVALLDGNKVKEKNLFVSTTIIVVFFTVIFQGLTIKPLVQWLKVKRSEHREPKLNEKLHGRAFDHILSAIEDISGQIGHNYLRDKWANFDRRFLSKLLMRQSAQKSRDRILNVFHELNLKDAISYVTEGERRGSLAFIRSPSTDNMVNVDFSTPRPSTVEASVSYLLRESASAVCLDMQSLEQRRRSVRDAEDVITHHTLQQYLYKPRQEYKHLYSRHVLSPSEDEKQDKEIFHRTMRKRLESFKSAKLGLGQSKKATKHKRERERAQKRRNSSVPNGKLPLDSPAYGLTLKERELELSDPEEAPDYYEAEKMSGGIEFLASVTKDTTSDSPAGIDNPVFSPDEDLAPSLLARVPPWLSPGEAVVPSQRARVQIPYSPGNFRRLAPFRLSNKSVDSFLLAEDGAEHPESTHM

CC(C)[C@@H](CC[C@@H](C)[C@H]1CC[C@H]2[C@@H]3[C@H](O)C[C@H]4C[C@@H](NCCCNCCCCN)CC[C@]4(C)[C@H]3CC[C@]12C)OS(=O)(=O)O [Compound 1256]
inhibition of human NHE1 (human NHE1): no inhibitory activity
inhibition of rabbit NHE1 (rabbit NHE1): no inhibitory activity
growth of bovine pulmonary artery endothelial cells [1]: inhibited the growth
growth of epithelial cells [2]: no effect on the growth
growth of fibroblasts [3]: no effect on the growth
minimal effective concentration ([4]; Homo sapiens, Endothelial cell, Table II, read-out: Minimum Effective Concentration, Cord Formation): 0.01 to 0.1 µg/mL
cell viability or proliferation ([4]; at cord-inhibiting concentrations): does not appear to profoundly affect cell viability or proliferation
effect on vitelline capillaries ([5]; 3- to 5-day chick embryos): disrupt vitelline capillaries
relative activity ([5]; Table 5): especially active
lag period ([5]; constriction between capillary and secondary vessels): around 15 minutes
hemorrhage / hemolysis ([5]; in vivo, listed as Squalamine): No hemorrhage was seen; also recorded: absence of hemolysis
impact on tumor volume (B16 melanoma; 5 mg/kg/day alone, FIG. 12): no significant impact on tumor volume
body weight and hematologic parameters (B16 melanoma; mouse, in vivo): no significant depression
tumor volume (B16 melanoma; subcutaneous, intraperitoneal or oral, FIGS. 4A-4C): dose-dependent suppression of tumor volume
growth of melanoma 1205Lu (melanoma 1205Lu): suppress the growth of melanoma 1205Lu in RAG-1 mice in a dose-dependent fashion; also recorded: clear suppression of tumor growth in a dose-dependent fashion
half-life (mouse IV PK study): ~35 min
cytostatic activity against B16 in culture (Murine B16 melanoma): minimal cytostatic activity
growth of human coronary artery smooth muscle [6]: suppress in vitro the growth
MIC (C. albicans): 8 µg/mL (≈ 12.7 µM)
MIC (E. coli): 2 to 4 µg/mL (≈ 3.18 to 6.37 µM)
MIC (P. aerug): 16 µg/mL (≈ 25.5 µM)
MIC (S. aureus): 0.5 to 1 µg/mL (≈ 0.796 to 1.59 µM)
time to death of tadpole [7]: ≤ 2 h
tadpole response [7]: Vascular occlusion in fine capillaries of tail. No effect on vascular flow through hands or feet
tadpole response ([7]; listed as squalamine): blood flow through the capillaries of the tail shut down; also recorded: common vascular occlusive effect
inhibition of blast transformation (human lymphocytes): Some effect
inhibition of NHE3 (rate of pH recovery) (rabbit NHE3; 5 μg/ml squalamine, FIGS. 1A, 1B): inhibited NHE3 with respect to proton concentration at both Km and Vmax levels
resting pH of cells (rabbit NHE3; 5 μg/ml, FIG. 1B, not acid-preloaded): the resting pH of these cells was also inhibited
inhibition of neutrophil adherence [8]: no inhibition
